Patent US20250213533A1 (GH RESEARCH IRELAND LIMITED, priority 2022, published 2025)

System: patients with postpartum depression (PPD)
Experiment: Clinical trial of inhaled 5-MeO-DMT (IDR) in postpartum depression; one patient so far, 6 mg then 12 mg
Conditions: 1 patient
Description: The single-arm, open-label clinical trial will involve 15 adult female patients with clinically diagnosed postpartum depression (PPD).
The second dose (12 mg) will only be administered if: • a. […] The 6 mg dose was safe and well-tolerated according to the investigator, • c. Any psychoactive effects (PsE) of the prior dose have subsided, and • d. Pre-dose vital parameters and forced expiratory volume in one second (FEV1) are in normal range, or if outside of the normal range, are not clinically significant according to the investigator. • 3. Similarly, a third dose (18 mg) will only be administered if: • a. […] The 12 mg dose was safe and well-tolerated according to the investigator, and • c. Any PsE of the prior dose have subsided, and • d. Pre-dose vital parameters and forced expiratory volume in one second (FEV1) are in normal range, or if outside of the normal range, are not clinically significant according to the investigator.
The patients will be assessed for a peak psychedelic experience (based on a patient-scored visual analogue scale, the PE scale), sedation, and other endpoints after dosing. Follow-up visits are planned for Day 1, and Day 7 after the dosing day.
The following criteria must be met by all patients considered for clinical trial participation: • 1. Is female and in the age range between 18 and 45 years (inclusive) at screening. • 2. Has a body mass index (BMI) in the range of 18.5 and 35 kg/m^2 (inclusive) at screening. • 3. Meets the trial criteria for PPD as assessed by a trial psychiatrist or registered psychologist: • a. Diagnosis of Major Depressive Disorder without psychotic features, confirmed by the Mini-International Neuropsychiatric Interview (MINI), with peri-partum onset that began no earlier than gestation and no later than the first 4 weeks postpartum. • b. Has a Montgomery-Åsberg Depression Rating Scale (MADRS) total score of equal to or greater than 28 at screening and pre-dose on Day 0. • 6. […] Patients must have a negative pregnancy test at screening and on the pre-test day (Day −1). • 5. Is willing to delay start of other antidepressant or anxiety medication until after the end of the trial at Day 7 and agrees to keep any psychotherapy unchanged during the trial.
A potential patient who meets any of the following key exclusion criteria will be excluded from participation in this trial: • 1. Has, based on history, psychiatric assessment, and evaluation of the MINI, a current or prior diagnosis of bipolar disorder, a manic or hypomanic episode, a psychotic disorder, Major Depressive Disorder (MDD) or other mood disorder with psychotic features, obsessive compulsive disorder, post-traumatic stress disorder (PTSD), autism spectrum disorder, borderline personality disorder, schizophrenia, delusional disorder, paranoid personality disorder, schizoaffective disorder, clinically significant intellectual disability, or any other psychiatric comorbidity that renders the patient unsuitable for the trial according to the investigator's judgment. • 2. Has one or more first or second degree relatives with a current or previously diagnosed bipolar disorder, psychotic disorder or other mood disorder (including MDD) with psychotic features. • 3. Is in the judgement of a trial psychiatrist or registered psychologist, at significant risk for suicide based on history, psychiatric assessment, and evaluation of suicidal ideation and suicidal behaviour based on the Columbia-Suicide Severity Rating Scale (C-SSRS). • 4. Has taken anti-depressive medication within 14 days or 5 half-lives (whichever is longer) prior to dosing (exception: within the last 5 weeks in the case of fluoxetine). • 5.

COc1ccc2[nH]cc(CCN(C)C)c2c1 [5-MeO-DMT]
ECG (3 hours), safety laboratory analyses (7 days), CADSS (3 hours, 1 day, 7 days): unremarkable
standard criteria for MADRS remission (total score equal or less than 10): fulfilled
standard criteria for MADRS response (at least 50% improvement from baseline): fulfilled
time to clinical response after administration: ≤ 2 h
tolerability of the inhalation procedure: well tolerated with no inhalation-related adverse events
MADRS Apparent sadness improvement (2hr): 5
MADRS Apparent sadness score (2hr): 0
MADRS Concentration Difficulties improvement (2hr): 0
MADRS Concentration Difficulties score (2hr): 0
MADRS Inability to Feel improvement (2hr): 3
MADRS Inability to Feel score (2hr): 0
MADRS Inner Tension improvement (2hr): 5
MADRS Inner Tension score (2hr): 0
MADRS Lassitude improvement (2hr): 3
MADRS Lassitude score (2hr): 0
MADRS Pessimistic Thoughts improvement (2hr): 4
MADRS Pessimistic Thoughts score (2hr): 0
MADRS Reduced Sleep improvement (2hr): 0
MADRS Reduced Sleep score (2hr): 5
MADRS Reduced appetite improvement (2hr): 0
MADRS Reduced appetite score (2hr): 0
MADRS Reported sadness improvement (2hr): 4
MADRS Reported sadness score (2hr): 0
MADRS Suicidal Thoughts improvement (2hr): 0
MADRS Suicidal Thoughts score (2hr): 0
BIMF TOTAL score (Day 0): 92
BIMF item 1 (I am a good mother) score (Day 0): 6
BIMF item 2 (I feel rested) score (Day 0): 0
BIMF item 3 (comfortable with the way I've chosen to feed my baby) score (Day 0): 6
BIMF item 4 (My baby and I understand each other) score (Day 0): 5
BIMF item 5 (able to relax and enjoy time with my baby) score (Day 0): 5
BIMF item 6 (people I can trust to care for my baby when I need a break) score (Day 0): 6
BIMF item 8 (getting enough adult interaction) score (Day 0): 6
BIMF item 9 (getting enough encouragement from other people) score (Day 0): 5
BIMF item 10 (trust my own feelings (instincts) in taking care of my baby) score (Day 0): 5
BIMF item 11 (take a little time each week to do something for myself) score (Day 0): 5
BIMF item 12 (taking good care of my baby's physical needs) score (Day 0): 6
BIMF item 13 (taking good care of my physical needs) score (Day 0): 4
BIMF item 14 (good decisions about my baby's health and well being) score (Day 0): 6
BIMF item 15 (My baby and I are getting into a routine) score (Day 0): 5
BIMF item 16 (I worry about how other people judge me (as a mother)) score (Day 0): 3
BIMF item 17 (able to take care of my baby and my other responsibilities) score (Day 0): 5
BIMF item 18 (Anxiety or worry often interferes with my mothering ability) score (Day 0): 2
BIMF item 19 (getting better at taking care of my baby) score (Day 0): 0
BIMF item 20 (satisfied with the job I am doing as a new mother) score (Day 0): 6
adverse events (cramping left abdominal pain, headache) (Day 0): mild, short-lasting and resolved spontaneously
BIMF functional domain Adjustment score (Day 0, maximum possible 12): 5
BIMF functional domain Infant Care score (Day 0, maximum possible 12): 12
BIMF functional domain Mother-Child Interaction score (Day 0, maximum possible 18): 15
BIMF functional domain Self Care score (Day 0, maximum possible 18): 9
BIMF functional domain Social Support score (Day 0, maximum possible 18): 17
BIMF functional domain Management score (Day 0, maximum possible 36): 28
BIMF functional domain Psychological Well-being score (Day 0, maximum possible 60): 44
BPRS Anxiety improvement (Day 1): 6
BPRS Anxiety score (Day 1): 1
BPRS Blunted affect improvement (Day 1): 0
BPRS Blunted affect score (Day 1): 1
BPRS Conceptual disorganization improvement (Day 1): 0
BPRS Conceptual disorganization score (Day 1): 1
BPRS Depressive Mood improvement (Day 1): 5
BPRS Depressive Mood score (Day 1): 1
BPRS Disorientation improvement (Day 1): 0
BPRS Disorientation score (Day 1): 1
BPRS Emotional withdrawal improvement (Day 1): 4
BPRS Emotional withdrawal score (Day 1): 1
BPRS Excitement improvement (Day 1): 1
BPRS Excitement score (Day 1): 1
BPRS Grandiosity improvement (Day 1): 0
BPRS Grandiosity score (Day 1): 1
BPRS Guilt feelings improvement (Day 1): 5
BPRS Guilt feelings score (Day 1): 1
BPRS Hallucinatory behaviour improvement (Day 1): 0
BPRS Hallucinatory behaviour score (Day 1): 1
BPRS Hostility improvement (Day 1): 0
BPRS Hostility score (Day 1): 1
BPRS Mannerisms and Posturing improvement (Day 1): 0
BPRS Mannerisms and Posturing score (Day 1): 1
BPRS Motor retardation improvement (Day 1): 0
BPRS Motor retardation score (Day 1): 1
BPRS Somatic Concern improvement (Day 1): 5
BPRS Somatic Concern score (Day 1): 1
BPRS Suspiciousness improvement (Day 1): 0
BPRS Suspiciousness score (Day 1): 1
BPRS Tension score (Day 1): 1
BPRS Uncooperativeness improvement (Day 1): 0
BPRS Uncooperativeness score (Day 1): 1
BPRS Unusual Thought Content improvement (Day 1): 0
BPRS Unusual Thought Content score (Day 1): 1
MADRS Apparent sadness improvement (Day 1): 5
MADRS Apparent sadness score (Day 1): 0
MADRS Concentration Difficulties improvement (Day 1): 0
MADRS Concentration Difficulties score (Day 1): 0
MADRS Inability to Feel improvement (Day 1): 3
MADRS Inability to Feel score (Day 1): 0
MADRS Inner Tension improvement (Day 1): 5
MADRS Inner Tension score (Day 1): 0
MADRS Lassitude improvement (Day 1): 3
MADRS Lassitude score (Day 1): 0
MADRS Pessimistic Thoughts improvement (Day 1): 4
MADRS Pessimistic Thoughts score (Day 1): 0
MADRS Reduced Sleep improvement (Day 1): 5
MADRS Reduced Sleep score (Day 1): 0
MADRS Reduced appetite improvement (Day 1): 0
MADRS Reduced appetite score (Day 1): 0
MADRS Reported sadness improvement (Day 1): 4
MADRS Reported sadness score (Day 1): 0
MADRS Suicidal Thoughts improvement (Day 1): 0
MADRS Suicidal Thoughts score (Day 1): 0
BIMF item 1 (I am a good mother) score (Day 7): 6
BIMF item 2 (I feel rested) score (Day 7): 2
BIMF item 3 (comfortable with the way I've chosen to feed my baby) score (Day 7): 6
BIMF item 4 (My baby and I understand each other) score (Day 7): 5
BIMF item 5 (able to relax and enjoy time with my baby) score (Day 7): 6
BIMF item 6 (people I can trust to care for my baby when I need a break) score (Day 7): 6
BIMF item 8 (getting enough adult interaction) score (Day 7): 6
BIMF item 9 (getting enough encouragement from other people) score (Day 7): 6
BIMF item 10 (trust my own feelings (instincts) in taking care of my baby) score (Day 7): 6
